Reference: US20080292699A1, “SOLID PHARMACEUTICAL DOSAGE UNIT FOR A[…] OF RHINORRHEA” (SOVEREIGN PHARMACEUTICALS, LTD., priority 2007, published 2008)
Counter-ions that a name gives are not always drawn.

Assay: Dissolution testing of the bi-layered tablet (USP I, baskets, 0.01 N HCl)
Type: physicochemical
Conditions: 500 mL 0.01 N HCl, 37° C., 100 rpm, average of six tablets
[1] = Time 2 hr, sustained release layer
[2] = Time 4 hr, sustained release layer
[3] = Time 8 hr, sustained release layer

Method: Place 500 mL (+/−5 mL) of 0.01 N HCl in each vessel of the dissolution apparatus (USP I, baskets). Allow media to equilibrate to 37° C.+/−0.5° C. […] Select 6 tablets at random and record weight of each tablet. […] Put one tablet into each basket. Turn dissolution apparatus on to a rate of 100 rpm. […] Withdraw samples through a 45 μm porous polyethylene filter disc (Whatman GE/X or Millipore Millex-GN) at 45 minutes, 2, 4 and 8 hours. […] Inject filtered samples into a gas chromatograph, injecting one standard (as used for calibration) after every six samples. Gas Chromatography: Instrument: Waters Alliance 2695 Separation Module Column: Waters μBondapak C18 Column, 10 μm, 3.9×300 mm; PN WAT027324 Column Temperature: 52° C. Flow Rate: 1.8 mL per minute Injection Volume: 200 μL Detector: UV at 257 nm Mobile Phase: A: Methanol • B: Pic-B8 (for every liter of Pic-B8 aqueous solution, dissolve 2.164 g of 1-octanesulfonic acid sodium salt in water and add 20 mL of glacial acetic acid) [table]

## CNC[C@H](O)c1cccc(O)c1 [PEH, Phenylephrine HCl]
[1]
  Average Amount Released [%]: 43.6%
[2]
  Average Amount Released [%]: 65.8%
[3]
  Average Amount Released [%]: 89.0%

## Methscopolamine Nitrate [MSPN]
Time 45 min, immediate release layer
  Average Amount Released [%]: 100.2%

## CN(C)CCC(c1ccc(Cl)cc1)c1ccccn1 (stereo not shown) [CPM, Chlorpheniramine Maleate]
[1]
  Average Amount Released [%]: 33.3%
[2]
  Average Amount Released [%]: 57.1%
[3]
  Average Amount Released [%]: 87.0%
